The test system of this assay is HCV replicon. The assay can be described thus: HCV replicon replication assay (NPT ELISA). Format: cell-based. The following applies: Hepatitis C virus, 72 h; Huh-7 HCV replicon-containing cells, three days; class symbols; read-out: EC50. The method, then: Compounds claimed herein are tested for the ability to inhibit viral replication of the Hepatitis C replicon in cultured cells in which the HCV replicon construct has been incorporated. The HCV replicon system was described by Bartenschlager, et. al (Science, 285, pp. 110-113 (1999)). The replicon system is predictive of in vivo anti-HCV activity; compounds that are active in humans uniformly evidence activity in the replicon assay.
In this assay HCV replicon containing cells are treated with different concentrations of the test compound to ascertain the ability of the test compound to suppress replication of the HCV replicon. As a positive control, HCV replicon-containing cells are treated with different concentrations of interferon alpha, a known inhibitor of HCV replication. The replicon assay system includes Neomycin Phosphotransferase (NPT) as a component of the replicon itself in order to detect the transcription of replicon gene products in the host cell. Cells in which the HCV replicon is actively replicating have high levels of NPT; the level of NPT is proportional to HCV replication. […] The NPT level of each sample is measured using a captured ELISA.
A protocol for testing compounds for the ability to inhibit viral replication of the Hepatitis C replicon cultured cells in which the replicon construct has been incorporated, follows.
The HCV replicon contains, 5′-3′, the HCV-IRES, the neomycin phosphotransferase (neo) gene, the IRES of encephalomyocarditis virus, which directs translation of HCV sequences NS3 to NS5B, and the 3′-NTR. The sequence of the HCV replicon has been deposited in GenBank (Accession no. AJ242652).
The replicon is transfected into Huh-7 cells using standard methods such as electroporation.
The equipment and materials include, but are not limited to, Huh-7 HCV replicon-containing cells, maintenance media (DMEM (Dulbecco's modified Eagle media) supplemented with 10% FBS, L-glutamine, non-essential amino acids, penicillin (100 units/ml), streptomycin (100 micrograms/ml), and 500 micrograms/ml of Geneticin (G418), screening media (DMEM supplemented with 10% FBS, L-glutamine, non-essential amino acids, penicillin (100 units/ml) and streptomycin (100 micrograms/ml)), 96 well tissue culture plates (flat bottom), 96 well plates (U bottom for drug dilution), Interferon alpha for positive control, fixation reagent (such as methanol: acetone), primary antibody (rabbit anti-NPTII), secondary antibody: Eu-N1 1, and enhancement solution.
HCV replicon-containing cells support high levels of viral RNA replicon replication when their density is suitable. Over-confluency causes decreased viral RNA replication. Therefore, cells must be kept growing in log phase in the presence of 500 micrograms/ml of G418. Generally, cells should be passed twice a week at 1: 4-6 dilution. Cell maintenance is conducted as follows:
HCV replicon-containing cells are examined under a microscope to ensure that cells growing well. Cells are rinsed once with PBS and 2 ml trypsin is added. The cell/trypsin mixture is incubated at 37° C. in a CO2 incubator for 3-5 minutes. After incubation 10 ml of complete media is added to stop the trypsinization reaction. Cells are blown gently, put into a 15 ml tube, and spun at 1200 rpm for 4 minutes. The trypsin/medium solution is removed. Medium (5 ml) is added and the cells are mixed carefully. The cells are counted.
The cells are then seeded onto 96-well plates at a density of 6000-7500 cells/100 microliters/well (6−7.5×10^5 cells/10 ml/plate). The plates are then incubated at 37° C. in a 5% CO2 incubator.
Cells are examined under a microscope approximated 24 hours after seeding and prior to adding drugs. If counting and dilution were performed correctly, cells are 60-70% confluent and nearly all cells should attach and spread evenly in the well.
HCV replicon-containing cells are rinsed with once PBS once; 2 mls of trypsin are then added. Cells are incubated at 37° C. in a 5% CO2 incubator for 3-5 minutes. […]

The structures appear in SMILES notation. pEC50: −log10 of the molar value. Some results are limits rather than exact numbers.

Consider `COC(=O)N[C@@H](C(=O)N1c2ccccc2C[C@H]1c1nc(-c2ccc(-c3ccc(-c4cnc([C@@H]5Cc6ccccc6N5)[nH]4)cc3)cc2)c[nH]1)C(C)C` [Compound 26, methyl (R)-1-((S)-2-(4-(4′-(2-((S)-indolin-2-yl)-1H-imidazol-5-yl)biphenyl-4-yl)-1H-imidazol-2-yl)indolin-1-yl)-3-methyl-1-oxobutan-2-ylcarbamate], for which the pEC50 is > 8.30. Take `COC(=O)N[C@H](C(=O)N1CCCCCC1c1nc(-c2ccc(-c3ccc(-c4c[nH]c(C5CCCN5C(=O)[C@@H](NC(=O)OC)C(C)C)n4)cc3)cc2)c[nH]1)C(C)C` (stereo partly drawn) [Compound 59]: the pEC50 is > 8.30. Consider `COC(=O)N[C@H](C(=O)N1C2CCC(C2)[C@H]1c1nc(-c2ccc3c(c2)Cc2cc(-c4c[nH]c([C@@H]5C6CCC(C6)N5C(=O)[C@@H](NC(=O)OC)C(C)C)n4)ccc2-3)c[nH]1)C(C)C` [Compound 75], for which the negative-log EC50 (pEC50) is > 8.30.

The term pEC50 denotes the EC50 on a negative log10 scale, so that one unit is a factor of ten.

Source of the values: patent US9125904B1, “Biphenyl imidazoles and related compounds useful for treating HCV infections” (ACHILLION PHARMACEUTICALS, INC., priority 2010, dated 2015).
